Results from patent US7422868B2, “Microbial ATP extraction and detection system” (Promega Corporation, priority 2004, dated 2008).

How the values were obtained:
[1] = test system: S. aureus ATCC 25923; assay: Bioluminescent detection of bacterial growth as a function of antibiotic dose; format: cell-based; conditions: 19 hours of incubation at 37° C.; ATP detection assay
Procedure: Four bacterial strains were used to evaluate the relationship between microbial cell number and luminescence. Bacterial strains Escherichia coli (ATCC25922), Staphylococcus aureus (ATCC25923), Pseudomonas aeruginosa (ATCC27853) and Bacillus cereus (ATCC10987) were grown in Mueller Hinton II (MH II) Broth at 37° C. overnight. The overnight culture was diluted 50-fold in fresh MH II Broth and then incubated for several hours to reach log phase. Samples of the culture were serially diluted using MH II Broth in a 96-well plate. […] Luminescence was recorded on a Veritas™ Microplate Luminometer from Turner Biosystems (Sunnyvale, Calif.). S. aureus ATCC 25923 strain was grown in MH II Broth at 37° C. overnight. The overnight culture was diluted 100-fold in fresh MH II Broth and used as inoculum for the antimicrobial screen. Working stocks (50×) of LOPAC compounds and standard antibiotics were prepared in DMSO. Each well of the 96-well multiwell plate contained 245 μl of the inoculum and 5 μl of the 50× working stock. […] One hundred microliters of the culture was taken from each well, and the luciferase detection assay was performed as described in Example 9. Luminescence was measured using a Veritas™ Microplate Luminometer from Turner Biosystems (Sunnyvale, Calif.). […] Luminescence was recorded on a Veritas™ Microplate Luminometer from Turner Biosystems (Sunnyvale, Calif.).

[2] = test system: Pseudomonas aeruginosa (ATCC27853); assay: Effect of alternate divalent cations on ATP extraction and detection; format: cell-based; conditions: high (20 mM) divalent cation concentration; approximately 1×10^6 cells per well
Procedure: To evaluate the effects of alternate divalent cations on ATP extraction and detection at low (0.2 mM) and high (20 mM) divalent cation concentrations, Pseudomonas aeruginosa (ATCC27853) was grown in Mueller Hinton II (MH II) Broth at 37° C. overnight. The overnight culture was diluted 50-fold in fresh MH II Broth and then incubated for several hours to reach log phase. Cells were diluted to approximately 1×10^6 cells per well.

[3] = test system: P. aeruginosa; conditions: CDTA added at t=12 minutes, final 20 mM, to mixture with 20 mM MgCl2
Procedure: Either 100 μl of bacterial culture or 100 μl of a 1×10^−9 M ATP stock (control) was added to 100 μl of the reconstitution reagent and luminescence was measured periodically over a 35 minute time period. The microbial cultures were tested at approximately 10^6 cells per well. Additional CDTA was added at t=12 minutes to each of the samples (final concentration=20 mM CDTA).

SMILES	effect on ATP detection (luminescence) [2]	further results
Cc1onc(-c2ccccc2)c1C(=O)N[C@@H]1C(=O)N2[C@@H]1SC(C)(C)[C@@H]2C(=O)O [oxacillin]	–	relative percentage of RLU compared to the no-oxacillin control [1]: dose-dependent effect
[Cl][Mn][Cl] [Mn^2+, MnCl2]	impede ATP detection	–
O=C(O)CN(CC(=O)O)C1CCCCC1N(CC(=O)O)CC(=O)O (stereo not shown) [CDTA, 1,2-Cyclohexanedinitrilotetraacetic acid]	–	neutralization of inhibitory divalent cation effects on ATP detection (luminescence) [3]: capable of neutralizing the inhibitory effects of divalent cations
[Ca+2].[Cl-].[Cl-] [Ca^2+, CaCl2]	impede ATP detection	–
